Measurements from a melting point compilation (Tetko et al.; mined from patent text by program, amines drawn as free bases though some values may be those of a salt).

With `Cc1[nH]c(C(=O)C(Cl)(Cl)Cl)c2c1-c1ccc(Cl)cc1C(c1ccccc1F)=NC2` as the compound, how does the melting point read?
Its melting point is 222 to 225 °C.

For `CCCn1cc(Cc2ccc(C(=O)O)cc2OC)c2cc(CCCC(=O)N(C)C)ccc21`, which melting point is on record?
Its melting point is 117 to 118 °C.

For `COc1cc(C=C2NC(=O)NC2=O)cc(OC)c1O`, which melting point is on record?
The melting point was 296 to 297 °C.

With `CN1C(=O)C(c2ccc[nH]2)=C(c2cn(C(=O)OC(C)(C)C)c3ccccc23)C1=O` as the compound, how does the melting point read?
The melting point was 82 to 83 °C.

Which melting point does the source give for `COc1ccc(S(=O)(=O)N(CCO)c2cccc(F)c2/C=C/c2ccncc2)cc1` here?
Its melting point is 152 to 153 °C.

With `CCCCOC(=O)C(=O)c1ccc2c(c1)C1(C)CCN(C)C1N2C` (stereo not given) as the compound, how does the melting point read?
The melting point was 56 to 61 °C.

For `Cc1cc(-c2ccc(C(F)(F)F)cc2)cc(-c2ccnc(-c3cccc(S(N)(=O)=O)c3)n2)n1`, which melting point is on record?
Its melting point is > 250 °C.

With `CC1(Cn2c(=O)n(-c3ccccc3)c3ccccc32)Cn2cc([N+](=O)[O-])nc2O1` (stereo not given) as the compound, how does the melting point read?
Its melting point is 234 to 235 °C.

With `COc1ccc(Br)cc1C1=NC(C)(C)CO1` as the compound, how does the melting point read?
Its melting point is 41 °C.

For `CCOC(=O)Nc1c(C(=O)c2cccc(C)c2)[nH]c2cc(Cl)ccc12`, which melting point is on record?
Its melting point is 154 to 157 °C.

With `CC1(C)Cc2cccc(Cl)c2C=[N+]1[O-]` as the compound, how does the melting point read?
The melting point was 110 to 111 °C.

Which melting point does the source give for `CCOC(=O)c1c(C(F)(F)F)nc(C(F)(F)Cl)c(C(=O)OC)c1NN(C)C` here?
Its melting point is 97 to 98 °C.

Which melting point does the source give for `Cc1nc(Cl)n(-c2ccccc2)n1` here?
Its melting point is 81 to 84 °C.

For `CC(=O)Nc1ccc([N+](=O)[O-])c(N2CCN(C(C)=O)CC2)n1`, which melting point is on record?
Its melting point is 189 to 193 °C.

With `CCCc1c(OCC(O)CSc2ccc(C(=O)CCC(=O)O)cc2F)ccc(C(C)=O)c1O` (stereo not given) as the compound, how does the melting point read?
The melting point was 106 to 109 °C.

With `Nc1ncnc2c1ncn2C1CC(=CF)C(O)C1O` (stereo not given) as the compound, how does the melting point read?
Its melting point is 167 to 169 °C.

With `CC(C)C[C@@H](NS(=O)(=O)c1ccc(N2CCC(c3ccccc3)CC2)cc1)C(=O)O` as the compound, how does the melting point read?
The melting point was 163 to 165 °C.

With `c1cc2c3c(c1)C1CCCCCCC1N3CCNC2` (stereo not given) as the compound, how does the melting point read?
Its melting point is 58 to 63 °C.

Which melting point does the source give for `Cc1c(C2=CCC(Cc3ccccc3)(N(C)C)CC2)[nH]c2ccc(C(F)(F)F)cc12` (stereo not given) here?
Its melting point is 119 to 120 °C.

With `Nc1ncccc1CCc1ccccc1` as the compound, how does the melting point read?
The melting point was 106 to 108 °C.

For `Cc1ccc(-n2nc(C)cc2-c2ccnc(Cl)c2)cc1`, which melting point is on record?
The melting point was 100 °C.

Which melting point does the source give for `O=C(Nc1nccs1)C(CC1CCCC1)c1ccc(-c2ccc3[nH]ccc3c2)cc1` (stereo not given) here?
The melting point was 112 to 115 °C.

Which melting point does the source give for `CC(C)C(=O)Nc1nsnc1-c1c(Cl)cccc1Cl` here?
Its melting point is 112 to 117 °C.

With `C=C(CCC)C(=O)c1ccc(OC2(C(=O)O)CCC2)c(Cl)c1Cl` as the compound, how does the melting point read?
The melting point was 105 to 106 °C.

For `O=c1[nH]cnc2sccc12`, which melting point is on record?
Its melting point is 256 to 258 °C.

For `C[Si](C)(C)CCCOc1ccc(O)c(C(=O)O)c1`, which melting point is on record?
The melting point was 115 to 116 °C.

For `Cc1cccc(NC(=O)CN2CCN(c3ccccc3C)CC2)c1`, which melting point is on record?
Its melting point is 104 to 106 °C.

With `Cc1c(Cl)cccc1C(=N)NO` as the compound, how does the melting point read?
Its melting point is 119 to 121 °C.

For `CC(C)N1Cc2cc(CO)ccc2N(CCN2CC=C(c3c[nH]c4cc(F)ccc34)CC2)S1(=O)=O`, which melting point is on record?
Its melting point is 113 to 115 °C.

Which melting point does the source give for `Cc1ccc2c3c(ccc2n1)OCC(CN1CC=C(c2cc4ccccc4s2)CC1)O3` (stereo not given) here?
The melting point was 174 to 176 °C.

Which melting point does the source give for `Nc1ccc(CC2CCN(S(=O)(=O)N3CCCCC3)CC2)cc1` here?
Its melting point is 144 to 145 °C.

Which melting point does the source give for `CC(C)c1ccc2nc3ccc(C(=O)OCCCc4cccnc4)cn3c(=O)c2c1` here?
The melting point was 108 to 109 °C.

Which melting point does the source give for `Cc1oc(-c2ccc(Cl)cc2)cc1C(=O)NCc1ccc2cc(O)ccc2c1` here?
The melting point was 202 to 204 °C.

With `c1ccc2c(c1)c(-c1nnn[nH]1)cc1nnnn12` as the compound, how does the melting point read?
The melting point was 250 to 251 °C.

Which melting point does the source give for `CCCCCC(=O)OCc1nccc(Oc2ccc3c(C(=O)OCC)csc3c2)n1` here?
The melting point was 51 °C.

For `O=C(O)c1cc(-n2c(-c3ccc(Br)cc3)cc3c2CCC3)ccc1O`, which melting point is on record?
Its melting point is 215 to 216 °C.

With `COc1cc2c(cc1OC)CC(Nc1ccc(O)cc1)CC2` (stereo not given) as the compound, how does the melting point read?
The melting point was 150 to 152 °C.

For `CCOC(=O)c1cn(-c2cc(NC(=O)OC(C)(C)C)c(F)cc2F)c2c(C)c(F)c(F)c([N+](=O)[O-])c2c1=O`, which melting point is on record?
The melting point was 188 to 189 °C.

Which melting point does the source give for `N#CC1=C(C2CC2)Nc2n[nH]cc2C1c1cccc(N2CCOCC2)c1` (stereo not given) here?
The melting point was > 260 °C.

Which melting point does the source give for `O=C1c2cc(O)ccc2OC12CC2` here?
The melting point was 180 to 185 °C.
